Assay results reported in patent publication US7452865B2, “Antagonistic analogs of GH RH (2003)” (The Administrare's of the Tulane Educational Fund, priority 2004, dated 2008).
Marks after values point to notes of the source that are not given here. Square brackets hold non-standard residues; d marks the D form. Peptide text beside a SMILES is read from it. * marks the point of attachment. Phe(4-amidino) = N=C(N)c1ccc(C[C@H](N)C(=O)O)cc1; Phe(4-Cl) = N[C@@H](Cc1ccc(Cl)cc1)C(=O)O; hArg = N=C(N)NCCCC[C@H](N)C(=O)O; Nle = CCCC[C@H](N)C(=O)O; Abu = CC[C@H](N)C(=O)O; PhAc = O=C(Cc1ccccc1)*

Columns and labels:
IGF-I [1] = assay: PC-3 xenografts, Experiment 1: serum IGF-I (RIA); type: in vivo, nude mice; conditions: 10 μg/day s.c., 28 days
How it was run: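 Male nude mice bearing s.c. PC-3 prostate tumors (~50 mm^3) given single daily s.c. injections, 10 μg/day, for 28 days, sacrificed day 29. IGFs acid-ethanol extracted from serum or tumor cytosol, then measured by RIA against IGF-I or recombinant human IGF-II standards.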

[2] = test system: hGH-RH(1-29)NH2 induced GH release; assay: Inhibition of GH release in superfused rat pituitary system; type: cell-based
How it was run: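 Dispersed rat pituitary cells in superfusion were preincubated 9 min with analog at various concentrations, then stimulated with 1 nM hGH-RH(1-29)NH2 for 3 min, repeated at 30, 60, 90, 120 min to gauge duration. GH measured by double-antibody RIA; net integrated responses expressed as percent of the initial 1 nM GH-RH response.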

IGF-II = assay: PC-3 xenografts, Experiment 1: tumor IGF-II (RIA); type: in vivo, nude mice; conditions: 10 μg/day s.c., 28 days
Text: (§1) For the measurement of GH and IGF-I levels in the serum, as well as IGF-I and IGF-II concentrations in the cytosol fraction of tumors, blood samples and tumor samples were collected and processed as described (Braczkowski R, Schally A V, Plonowski A, Varga J L, Groot K, Krupa M, Armatis P, Cancer 95: 1735-1745, 2002), hereby incorporated by reference. Briefly, blood samples are centrifuged to separate the serum, tumors are homogenized and centrifuged to separate the cytosol fraction. Serum GH is then measured by the double-antibody RIA method. Before measurement by RIA, IGF-I and IGF-II are extracted from serum and cytosol fractions using an acid-ethanol cryoprecipitation method that eliminates most of the IGF binding proteins, which can interfere with the RIA. IGF-I concentration is measured by RIA using IGF-I as a standard and goat anti-IGF-I antibody (both from DSL Inc., Webster, Tex.). IGF-II concentration is measured by RIA using human recombinant IGF-II (Bachem) as a standard and anti-IGF-II monoclonal antibody (Amano International Enzyme, Troy, Va.).
Male nude mice were implanted s.c. with 3 mm^3 pieces of PC-3 human hormone-independent prostate cancer tissue on both flanks. When tumors reached a volume of approx. 50 mm^3, the mice were divided into 5 experimental groups with 7 to 8 animals in each group and received single daily injections for 28 days as follows: 1. Control (vehicle solution); 2. JV-1-38 (10 μg/day s.c.); 3 Peptide 31 (10 μg/day s.c.); 4. Peptide 67 (10 μg/day s.c.); 5. Peptide 62 (10 μg/day s.c.). Tumor volumes were measured twice a week. The experiment was ended on day 29 by sacrificing the mice under Isoflurane anesthesia. Resulting tumors were cleaned, weighed, and snap-frozen until further analyses. Trunk blood was collected from the abdominal aorta and serum was separated for RIA measurement of IGF-I. Statistical analyses of the measurement results were done by two-tailed t-test; data are presented as the means±S.E.

[3] = test system: H-69 human SCLC xenografts; assay: H-69 human SCLC xenografts in nude mice: tumor growth; type: in vivo; conditions: H-69
Protocol: Male nude mice were implanted s.c. with 3 mm^3 pieces of H-69 human SCLC tissue. When tumors reached a volume of approx. 80 mm^3 the mice were divided into 4 experimental groups of 7-8 animals each and received the following treatment for 4 weeks: group I (control), vehicle solution; group 2, Peptide 67 (10 μg/day s.c.); group 3, Peptide 31 (10 μg/day s.c.); group 4, Peptide 72 (10 μg/day s.c.). Tumor volumes were recorded twice a week. At the end of treatment, mice were anesthetized with isoflurane, killed by decapitation, and tumors were excised and weighed. Data are presented as means±S.E. Data were evaluated by one way ANOVA and the Student-Newman-Keuls test.

IGF-I [4] = assay: DMS-153 human SCLC xenografts: serum IGF-I; type: in vivo, nude mice; conditions: 10 μg/day s.c., 6 weeks
Text: as §1
Male nude mice were implanted s.c. with 3 mm^3 pieces of DMS-153 human SCLC tissue. When tumors reached a volume of approx. 100 mm^3 the mice were divided into 3 experimental groups of 68 animals each and received the following treatment for 6 weeks group 1 (control), vehicle solution; group 2, Peptide 67 (10 μg/day s.c.); group 3, Peptide 31 (10 μg/day s.c.). Tumor volumes were recorded twice a week. At the end of treatment, mice were anesthetized with isoflurane, killed by decapitation, trunk blood was collected for measurement of serum IGF-I, and tumors were excised and weighed. Data are presented as means±S.E. Data were evaluated by one way ANOVA and the Student-Newman-Keuls test.

CCCC[C@H](NC(=O)[C@@H](NC(=O)[C@H](CC(=O)O)NC(=O)[C@H](CCC(N)=O)NC(=O)[C@H](CC(C)C)NC(=O)[C@H](CC(C)C)NC(=O)[C@H](CCCCN)NC(=O)[C@H](CCCNC(=N)N)NC(=O)[C@H](C)NC(=O)[C@H](CO)NC(=O)[C@H](CC(C)C)NC(=O)[C@H](CCC(N)=O)NC(=O)[C@H](CC)NC(=O)[C@H](CC(C)C)NC(=O)[C@@H](NC(=O)[C@H](CCCCN)NC(=O)[C@H](CCCNC(=N)N)NC(=O)[C@H](Cc1ccc(OC)cc1)NC(=O)[C@H](Cc1ccc(C(=N)N)cc1)NC(=O)[C@H](CC(N)=O)NC(=O)[C@@H](NC(=O)[C@H](Cc1ccc(Cl)cc1)NC(=O)[C@@H](NC(=O)[C@H](C)NC(=O)[C@H](CC(=O)O)NC(=O)[C@@H](CCCNC(=N)N)NC(=O)[C@H](Cc1ccc(O)cc1)NC(=O)Cc1ccccc1)[C@@H](C)CC)[C@@H](C)O)C(C)C)[C@@H](C)CC)C(=O)N[C@H](CCCNC(=N)N)C(=O)N[C@@H](CCCCNC(=N)N)C(N)=O [Peptide 67, [PhAc-Tyr^1, D-Arg^2, Phe(pCl)^6, Amp^9, Tyr(Me)^10, Abu^15, Nle^27, D-Arg^28, Har^29]hGH-RH(1-29)NH2] (PhAc-Y[dR]DAI[Phe(4-Cl)]TN[Phe(4-amidino)]Y(Me)RKVL[Abu]QLSARKLLQDI[Nle][dR][hArg]-NH2)
Serum IGF-I (IGF-I [1]): 128 ± 10.6 ng/mL | Serum IGF-I (% inhibition) (IGF-I [1]; vs control): (14%) | GH response (% of control) 0 min ([2]; antagonist 30 nM, 1 nM hGH-RH(1-29)NH2 at 0 min): 28 % of control | GH response (% of control) 30 min ([2]; antagonist 30 nM, 1 nM hGH-RH(1-29)NH2 at 30 min): 15 % of control | GH response (% of control) 60 min ([2]; antagonist 30 nM, 1 nM hGH-RH(1-29)NH2 at 60 min): 18 % of control | GH response (% of control) 90 min ([2]; antagonist 30 nM, 1 nM hGH-RH(1-29)NH2 at 90 min): 20 % of control | GH response (% of control) 120 min ([2]; antagonist 30 nM, 1 nM hGH-RH(1-29)NH2 at 120 min): 23 % of control | endocrine antagonistic potency: inhibition of the GH release stimulated by hGH-RH(1-29)NH2 (in words) ([2]; general statement, in vitro and in vivo): high endocrine antagonistic potencies | Tumor IGF-II (pg/mg protein) (IGF-II): 139 ± 69.2 pg/mg protein | Tumor IGF-II (% inhibition) (IGF-II; vs control): (37%) | Tumor volume (mm^3) Final ([3]; 10 μg/day s.c., 4 weeks): 501 ± 35* mm^3 | Tumor volume Final (% inhibition) ([3]; 10 μg/day s.c., 4 weeks, vs control): (76%) | Tumor volume (mm^3) Initial ([3]; at start of treatment): 82 ± 10 mm^3 | Serum IGF-I (IGF-I [4]): 117.9 ± 17.2 ng/mL | Serum IGF-I (% inhibition) (IGF-I [4]; vs control): (30%)
